{"source": "PubChem BioAssay (NCI)", "assay_in_all_cases": "growth of human tumour cells (NCI), 48 h", "key": {"NCI-H460 lung": {"test_system": "NCI-H460 lung"}, "EKVX NSCLC": {"test_system": "EKVX NSCLC"}, "CAKI-1 renal": {"test_system": "CAKI-1 renal"}, "RXF 393 renal": {"test_system": "RXF 393 renal"}, "K-562 leukemia": {"test_system": "K-562 leukemia"}, "SW-620 colon": {"test_system": "SW-620 colon"}, "BT-549 breast": {"test_system": "BT-549 breast"}, "SK-MEL-5 melanoma": {"test_system": "SK-MEL-5 melanoma"}, "786-0 renal": {"test_system": "786-0 renal"}, "HS 578T breast": {"test_system": "HS 578T breast"}, "IGROV1 ovarian": {"test_system": "IGROV1 ovarian"}, "CCRF-CEM leukemia": {"test_system": "CCRF-CEM leukemia"}, "HL-60(TB) leukemia": {"test_system": "HL-60(TB) leukemia"}, "TK-10 renal": {"test_system": "TK-10 renal"}, "HOP-92 NSCLC": {"test_system": "HOP-92 NSCLC"}, "COLO 205 colon": {"test_system": "COLO 205 colon"}, "HCC-2998 colon": {"test_system": "HCC-2998 colon"}, "A498 renal": {"test_system": "A498 renal"}, "OVCAR-5 ovarian": {"test_system": "OVCAR-5 ovarian"}, "M14 melanoma": {"test_system": "M14 melanoma"}, "HOP-62 NSCLC": {"test_system": "HOP-62 NSCLC"}, "MDA-MB-231 breast": {"test_system": "MDA-MB-231 breast"}, "UACC-257 melanoma": {"test_system": "UACC-257 melanoma"}, "MDA-MB-435": {"test_system": "MDA-MB-435"}, "LOX IMVI melanoma": {"test_system": "LOX IMVI melanoma"}, "NCI-H226 lung": {"test_system": "NCI-H226 lung"}, "MCF7 breast": {"test_system": "MCF7 breast"}, "MOLT-4 leukemia": {"test_system": "MOLT-4 leukemia"}, "OVCAR-8 ovarian": {"test_system": "OVCAR-8 ovarian"}}, "note": "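Assay format: 96-well plates, 48-hour exposure. Abbreviation: GI50, concentration required for 50% inhibition of growth. Definition used: TGI = concentration required for complete inhibition of growth.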", "data": [{"smiles": "FC(F)(F)c1ccc(-c2cncn2-c2ccccc2)cc1", "values": [{"measurement": "TGI", "setting": "NCI-H460 lung", "result": "> 100", "unit": "µM"}, {"measurement": "GI50", "setting": "EKVX NSCLC", "result": 17.1, "unit": "µM"}, {"measurement": "TGI", "setting": "EKVX NSCLC", "result": 54.3, "unit": "µM"}, {"measurement": "GI50", "setting": "CAKI-1 renal", "result": 4.71, "unit": "µM"}, {"measurement": "TGI", "setting": "CAKI-1 renal", "result": "> 100", "unit": "µM"}, {"measurement": "GI50", "setting": "RXF 393 renal", "result": 16.6, "unit": "µM"}, {"measurement": "TGI", "setting": "RXF 393 renal", "result": 32.2, "unit": "µM"}, {"measurement": "GI50", "setting": "K-562 leukemia", "result": 20.9, "unit": "µM"}, {"measurement": "TGI", "setting": "K-562 leukemia", "result": 77.6, "unit": "µM"}, {"measurement": "GI50", "setting": "SW-620 colon", "result": 4.03, "unit": "µM"}, {"measurement": "TGI", "setting": "SW-620 colon", "result": 57.1, "unit": "µM"}, {"measurement": "GI50", "setting": "BT-549 breast", "result": 15.1, "unit": "µM"}, {"measurement": "TGI", "setting": "BT-549 breast", "result": 40.4, "unit": "µM"}, {"measurement": "GI50", "setting": "SK-MEL-5 melanoma", "result": 13, "unit": "µM"}, {"measurement": "TGI", "setting": "SK-MEL-5 melanoma", "result": 26.9, "unit": "µM"}, {"measurement": "GI50", "setting": "786-0 renal", "result": 10, "unit": "µM"}, {"measurement": "TGI", "setting": "786-0 renal", "result": 21.9, "unit": "µM"}, {"measurement": "GI50", "setting": "HS 578T breast", "result": 16.4, "unit": "µM"}, {"measurement": "TGI", "setting": "HS 578T breast", "result": 47.8, "unit": "µM"}, {"measurement": "GI50", "setting": "IGROV1 ovarian", "result": 12.3, "unit": "µM"}, {"measurement": "TGI", "setting": "IGROV1 ovarian", "result": 38.6, "unit": "µM"}, {"measurement": "GI50", "setting": "CCRF-CEM leukemia", "result": 2.84, "unit": "µM"}, {"measurement": "TGI", "setting": "CCRF-CEM leukemia", "result": 15.7, "unit": "µM"}, {"measurement": "GI50", "setting": "HL-60(TB) leukemia", "result": 12.7, "unit": "µM"}, {"measurement": "TGI", "setting": "HL-60(TB) leukemia", "result": 35.6, "unit": "µM"}, {"measurement": "GI50", "setting": "TK-10 renal", "result": 24.2, "unit": "µM"}, {"measurement": "TGI", "setting": "TK-10 renal", "result": "> 100", "unit": "µM"}, {"measurement": "GI50", "setting": "HOP-92 NSCLC", "result": 2.89, "unit": "µM"}, {"measurement": "TGI", "setting": "HOP-92 NSCLC", "result": 18.9, "unit": "µM"}, {"measurement": "GI50", "setting": "COLO 205 colon", "result": 19.1, "unit": "µM"}, {"measurement": "TGI", "setting": "COLO 205 colon", "result": 47.1, "unit": "µM"}, {"measurement": "GI50", "setting": "HCC-2998 colon", "result": 12.3, "unit": "µM"}, {"measurement": "TGI", "setting": "HCC-2998 colon", "result": 26.2, "unit": "µM"}, {"measurement": "GI50", "setting": "A498 renal", "result": 12.9, "unit": "µM"}, {"measurement": "TGI", "setting": "A498 renal", "result": 27.1, "unit": "µM"}, {"measurement": "GI50", "setting": "OVCAR-5 ovarian", "result": 23.5, "unit": "µM"}, {"measurement": "TGI", "setting": "OVCAR-5 ovarian", "result": 79.4, "unit": "µM"}, {"measurement": "GI50", "setting": "M14 melanoma", "result": 13, "unit": "µM"}, {"measurement": "TGI", "setting": "M14 melanoma", "result": 27.1, "unit": "µM"}, {"measurement": "GI50", "setting": "HOP-62 NSCLC", "result": 2.72, "unit": "µM"}, {"measurement": "TGI", "setting": "HOP-62 NSCLC", "result": 20.7, "unit": "µM"}, {"measurement": "GI50", "setting": "MDA-MB-231 breast", "result": 11.8, "unit": "µM"}, {"measurement": "TGI", "setting": "MDA-MB-231 breast", "result": 28.6, "unit": "µM"}, {"measurement": "GI50", "setting": "UACC-257 melanoma", "result": 19.9, "unit": "µM"}, {"measurement": "TGI", "setting": "UACC-257 melanoma", "result": 49, "unit": "µM"}, {"measurement": "GI50", "setting": "MDA-MB-435", "result": 24.4, "unit": "µM"}, {"measurement": "TGI", "setting": "MDA-MB-435", "result": 88.5, "unit": "µM"}, {"measurement": "GI50", "setting": "LOX IMVI melanoma", "result": 5.68, "unit": "µM"}, {"measurement": "TGI", "setting": "LOX IMVI melanoma", "result": 23.2, "unit": "µM"}, {"measurement": "GI50", "setting": "NCI-H226 lung", "result": 10.5, "unit": "µM"}, {"measurement": "TGI", "setting": "NCI-H226 lung", "result": 27.8, "unit": "µM"}, {"measurement": "GI50", "setting": "MCF7 breast", "result": 22.7, "unit": "µM"}, {"measurement": "TGI", "setting": "MCF7 breast", "result": "> 100", "unit": "µM"}, {"measurement": "GI50", "setting": "MOLT-4 leukemia", "result": 3.9, "unit": "µM"}, {"measurement": "TGI", "setting": "MOLT-4 leukemia", "result": 27.2, "unit": "µM"}, {"measurement": "GI50", "setting": "OVCAR-8 ovarian", "result": 13.6, "unit": "µM"}, {"measurement": "TGI", "setting": "OVCAR-8 ovarian", "result": 33.8, "unit": "µM"}]}]}
